Reference: patent publication US8192962B2, “Processes for detecting toxic substances” (Daikin Industries, Ltd., priority 2001, dated 2012)

System: Stress protein genes
Test: DNA chip mRNA expression in yeast, stress protein genes (Table 6)
Assay type: cell-based, Saccharomyces cerevisiae S288C
Method in brief: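 Values are treated/untreated fluorescence ratios from a whole-genome yeast DNA chip hybridized over 12 hours at 65° C with Cy3- or Cy5-labelled cDNA from poly(A) mRNA. Log-phase S288C yeast in YPD at 25° C had received a single toxic chemical for two hours, dosed to slow growth without killing.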

## [Cl][Hg][Cl] [(3), HgCl2]
Yeast gene YAL005C
  The level of expressed mRNA in the presence of chemical substance/The level of expressed mRNA in the absence of chemical substance: 7.0
Yeast gene YAL015C
  The level of expressed mRNA in the presence of chemical substance/The level of expressed mRNA in the absence of chemical substance: 1.7
Yeast gene YBL075C
  The level of expressed mRNA in the presence of chemical substance/The level of expressed mRNA in the absence of chemical substance: 3.1
Yeast gene YBL093C
  The level of expressed mRNA in the presence of chemical substance/The level of expressed mRNA in the absence of chemical substance: 0.4
Yeast gene YBR044C
  The level of expressed mRNA in the presence of chemical substance/The level of expressed mRNA in the absence of chemical substance: 0.7
Yeast gene YBR054W
  The level of expressed mRNA in the presence of chemical substance/The level of expressed mRNA in the absence of chemical substance: 5.4
Yeast gene YBR067C
  The level of expressed mRNA in the presence of chemical substance/The level of expressed mRNA in the absence of chemical substance: 2.8
Yeast gene YBR072W
  The level of expressed mRNA in the presence of chemical substance/The level of expressed mRNA in the absence of chemical substance: 18.4
Yeast gene YBR126C
  The level of expressed mRNA in the presence of chemical substance/The level of expressed mRNA in the absence of chemical substance: 5.6
Yeast gene YBR169C
  The level of expressed mRNA in the presence of chemical substance/The level of expressed mRNA in the absence of chemical substance: 3.9
Yeast gene YCL035C
  The level of expressed mRNA in the presence of chemical substance/The level of expressed mRNA in the absence of chemical substance: 1.5
Yeast gene YCR021C
  The level of expressed mRNA in the presence of chemical substance/The level of expressed mRNA in the absence of chemical substance: 4.2
Yeast gene YCR060W
  The level of expressed mRNA in the presence of chemical substance/The level of expressed mRNA in the absence of chemical substance: 0.9
Yeast gene YCR083W
  The level of expressed mRNA in the presence of chemical substance/The level of expressed mRNA in the absence of chemical substance: 1.5
Yeast gene YDL022W
  The level of expressed mRNA in the presence of chemical substance/The level of expressed mRNA in the absence of chemical substance: 6.9
Yeast gene YDL025C
  The level of expressed mRNA in the presence of chemical substance/The level of expressed mRNA in the absence of chemical substance: 3.5
Yeast gene YDR033W
  The level of expressed mRNA in the presence of chemical substance/The level of expressed mRNA in the absence of chemical substance: 4.6
Yeast gene YDR077W
  The level of expressed mRNA in the presence of chemical substance/The level of expressed mRNA in the absence of chemical substance: 3.5
Yeast gene YDR098C
  The level of expressed mRNA in the presence of chemical substance/The level of expressed mRNA in the absence of chemical substance: 1.0
Yeast gene YDR155C
  The level of expressed mRNA in the presence of chemical substance/The level of expressed mRNA in the absence of chemical substance: 3.2
Yeast gene YDR258C
  The level of expressed mRNA in the presence of chemical substance/The level of expressed mRNA in the absence of chemical substance: 2.8
Yeast gene YDR293C
  The level of expressed mRNA in the presence of chemical substance/The level of expressed mRNA in the absence of chemical substance: 1.2
Yeast gene YDR436W
  The level of expressed mRNA in the presence of chemical substance/The level of expressed mRNA in the absence of chemical substance: 1.1
Yeast gene YDR513W
  The level of expressed mRNA in the presence of chemical substance/The level of expressed mRNA in the absence of chemical substance: 2.3
Yeast gene YDR519W
  The level of expressed mRNA in the presence of chemical substance/The level of expressed mRNA in the absence of chemical substance: 1.7
Yeast gene YEL030W
  The level of expressed mRNA in the presence of chemical substance/The level of expressed mRNA in the absence of chemical substance: 1.9
Yeast gene YEL039C
  The level of expressed mRNA in the presence of chemical substance/The level of expressed mRNA in the absence of chemical substance: 1.3
Yeast gene YER042W
  The level of expressed mRNA in the presence of chemical substance/The level of expressed mRNA in the absence of chemical substance: 3.1
Yeast gene YER057C
  The level of expressed mRNA in the presence of chemical substance/The level of expressed mRNA in the absence of chemical substance: 3.0
Yeast gene YER103W
  The level of expressed mRNA in the presence of chemical substance/The level of expressed mRNA in the absence of chemical substance: 5.2
Yeast gene YER125W
  The level of expressed mRNA in the presence of chemical substance/The level of expressed mRNA in the absence of chemical substance: 1.5
Yeast gene YFL014W
  The level of expressed mRNA in the presence of chemical substance/The level of expressed mRNA in the absence of chemical substance: 5.7
Yeast gene YFL016C
  The level of expressed mRNA in the presence of chemical substance/The level of expressed mRNA in the absence of chemical substance: 1.6
Yeast gene YFL020C
  The level of expressed mRNA in the presence of chemical substance/The level of expressed mRNA in the absence of chemical substance: 1.9
Yeast gene YFR052W
  The level of expressed mRNA in the presence of chemical substance/The level of expressed mRNA in the absence of chemical substance: 1.3
Yeast gene YGL073W
  The level of expressed mRNA in the presence of chemical substance/The level of expressed mRNA in the absence of chemical substance: 0.9
Yeast gene YGL115W
  The level of expressed mRNA in the presence of chemical substance/The level of expressed mRNA in the absence of chemical substance: 1.2
Yeast gene YGL181W
  The level of expressed mRNA in the presence of chemical substance/The level of expressed mRNA in the absence of chemical substance: 1.2
Yeast gene YGR088W
  The level of expressed mRNA in the presence of chemical substance/The level of expressed mRNA in the absence of chemical substance: 7.7
Yeast gene YHL028W
  The level of expressed mRNA in the presence of chemical substance/The level of expressed mRNA in the absence of chemical substance: 1.4
Yeast gene YHL046C
  The level of expressed mRNA in the presence of chemical substance/The level of expressed mRNA in the absence of chemical substance: 2.1
Yeast gene YHR030C
  The level of expressed mRNA in the presence of chemical substance/The level of expressed mRNA in the absence of chemical substance: 0.6
Yeast gene YHR057C
  The level of expressed mRNA in the presence of chemical substance/The level of expressed mRNA in the absence of chemical substance: 0.7
Yeast gene YHR104W
  The level of expressed mRNA in the presence of chemical substance/The level of expressed mRNA in the absence of chemical substance: 15.7
Yeast gene YIL011W
  The level of expressed mRNA in the presence of chemical substance/The level of expressed mRNA in the absence of chemical substance: 3.9
Yeast gene YIL033C
  The level of expressed mRNA in the presence of chemical substance/The level of expressed mRNA in the absence of chemical substance: 3.3
Yeast gene YIR037W
  The level of expressed mRNA in the presence of chemical substance/The level of expressed mRNA in the absence of chemical substance: 2.0
Yeast gene YIR038C
  The level of expressed mRNA in the presence of chemical substance/The level of expressed mRNA in the absence of chemical substance: 4.6
Yeast gene YJL128C
  The level of expressed mRNA in the presence of chemical substance/The level of expressed mRNA in the absence of chemical substance: 0.4
Yeast gene YJL158C
  The level of expressed mRNA in the presence of chemical substance/The level of expressed mRNA in the absence of chemical substance: 2.8
Yeast gene YJL159W
  The level of expressed mRNA in the presence of chemical substance/The level of expressed mRNA in the absence of chemical substance: 2.8
Yeast gene YJL165C
  The level of expressed mRNA in the presence of chemical substance/The level of expressed mRNA in the absence of chemical substance: 1.3
Yeast gene YJR045C
  The level of expressed mRNA in the presence of chemical substance/The level of expressed mRNA in the absence of chemical substance: 3.9
Yeast gene YJR090C
  The level of expressed mRNA in the presence of chemical substance/The level of expressed mRNA in the absence of chemical substance: 0.6
Yeast gene YKL161C
  The level of expressed mRNA in the presence of chemical substance/The level of expressed mRNA in the absence of chemical substance: 0.9
Yeast gene YKL163W
  The level of expressed mRNA in the presence of chemical substance/The level of expressed mRNA in the absence of chemical substance: 3.4
Yeast gene YKL164C
  The level of expressed mRNA in the presence of chemical substance/The level of expressed mRNA in the absence of chemical substance: 2.5
Yeast gene YKL210W
  The level of expressed mRNA in the presence of chemical substance/The level of expressed mRNA in the absence of chemical substance: 2.7
Yeast gene YKR053C
  The level of expressed mRNA in the presence of chemical substance/The level of expressed mRNA in the absence of chemical substance: 1.0
Yeast gene YLL024C
  The level of expressed mRNA in the presence of chemical substance/The level of expressed mRNA in the absence of chemical substance: 5.3
Yeast gene YLL026W
  The level of expressed mRNA in the presence of chemical substance/The level of expressed mRNA in the absence of chemical substance: 7.7
Yeast gene YLL039C
  The level of expressed mRNA in the presence of chemical substance/The level of expressed mRNA in the absence of chemical substance: 1.7
Yeast gene YLL060C
  The level of expressed mRNA in the presence of chemical substance/The level of expressed mRNA in the absence of chemical substance: 2.3
Yeast gene YLR006C
  The level of expressed mRNA in the presence of chemical substance/The level of expressed mRNA in the absence of chemical substance: 0.9
Yeast gene YLR109W
  The level of expressed mRNA in the presence of chemical substance/The level of expressed mRNA in the absence of chemical substance: 6.0
Yeast gene YLR259C
  The level of expressed mRNA in the presence of chemical substance/The level of expressed mRNA in the absence of chemical substance: 3.1
Yeast gene YML007W
  The level of expressed mRNA in the presence of chemical substance/The level of expressed mRNA in the absence of chemical substance: 0.9
Yeast gene YML070W
  The level of expressed mRNA in the presence of chemical substance/The level of expressed mRNA in the absence of chemical substance: 2.5
Yeast gene YMR021C
  The level of expressed mRNA in the presence of chemical substance/The level of expressed mRNA in the absence of chemical substance: 0.9
Yeast gene YMR173W
  The level of expressed mRNA in the presence of chemical substance/The level of expressed mRNA in the absence of chemical substance: 3.0
Yeast gene YMR186W
  The level of expressed mRNA in the presence of chemical substance/The level of expressed mRNA in the absence of chemical substance: 2.0
Yeast gene YNL064C
  The level of expressed mRNA in the presence of chemical substance/The level of expressed mRNA in the absence of chemical substance: 1.8
Yeast gene YNL160W
  The level of expressed mRNA in the presence of chemical substance/The level of expressed mRNA in the absence of chemical substance: 10.6
Yeast gene YNL241C
  The level of expressed mRNA in the presence of chemical substance/The level of expressed mRNA in the absence of chemical substance: 4.3
Yeast gene YNR076W
  The level of expressed mRNA in the presence of chemical substance/The level of expressed mRNA in the absence of chemical substance: 2.5
Yeast gene YOL064C
  The level of expressed mRNA in the presence of chemical substance/The level of expressed mRNA in the absence of chemical substance: 1.1
Yeast gene YOL161C
  The level of expressed mRNA in the presence of chemical substance/The level of expressed mRNA in the absence of chemical substance: 2.4
Yeast gene YOR008C
  The level of expressed mRNA in the presence of chemical substance/The level of expressed mRNA in the absence of chemical substance: 1.4
Yeast gene YOR009W
  The level of expressed mRNA in the presence of chemical substance/The level of expressed mRNA in the absence of chemical substance: 3.2
Yeast gene YOR010C
  The level of expressed mRNA in the presence of chemical substance/The level of expressed mRNA in the absence of chemical substance: 3.2
Yeast gene YOR027W
  The level of expressed mRNA in the presence of chemical substance/The level of expressed mRNA in the absence of chemical substance: 4.4
Yeast gene YOR208W
  The level of expressed mRNA in the presence of chemical substance/The level of expressed mRNA in the absence of chemical substance: 1.2
Yeast gene YPL059W
  The level of expressed mRNA in the presence of chemical substance/The level of expressed mRNA in the absence of chemical substance: 2.6
Yeast gene YPL106C
  The level of expressed mRNA in the presence of chemical substance/The level of expressed mRNA in the absence of chemical substance: 2.4
Yeast gene YPL140C
  The level of expressed mRNA in the presence of chemical substance/The level of expressed mRNA in the absence of chemical substance: 0.9
Yeast gene YPL194W
  The level of expressed mRNA in the presence of chemical substance/The level of expressed mRNA in the absence of chemical substance: 0.4
Yeast gene YPL223C
  The level of expressed mRNA in the presence of chemical substance/The level of expressed mRNA in the absence of chemical substance: 1.2
Yeast gene YPL240C
  The level of expressed mRNA in the presence of chemical substance/The level of expressed mRNA in the absence of chemical substance: 2.4
Yeast gene YPR005C
  The level of expressed mRNA in the presence of chemical substance/The level of expressed mRNA in the absence of chemical substance: 1.5
Yeast gene YPR026W
  The level of expressed mRNA in the presence of chemical substance/The level of expressed mRNA in the absence of chemical substance: 5.0
